Test results: patent publication US10544134B2, “4-substituted coumarin derivatives and preparation methods and uses thereof” (SI CHUAN UNIVERSITY, priority 2015, dated 2020)

system: prostate cancer PC-3; assay: Tumor cell proliferation inhibitory activity test in vitro (MTT); format: cell-based, human; details: Homo sapiens, 72 hours, read-out: IC50 of compounds for tumor cells, Activity, PC-3
Text: (§1) Human non-small cell lung cancer cell line NCI-H460, human small cell lung cancer cell line NCI-H446, human hepatocellular carcinoma cell strain HepG2, human colon carcinoma cell strain HCT116, human prostate cancer PC-3, human melanoma A375, colon carcinoma cell HCT-8, breast cancer cell MCF-7, ovarian cancer cell A2780s, drug-resistant ovarian cancer cell A2780/T, drug-resistant colon cancer cell HCT-8/T and doxorubicin-resistant breast cancer cell MCF-7/ADR are obtained from American Type Culture Collection (ATCC) and are cultured and preserved by the cell bank of State Key Laboratory of Biotherapy of Sichuan University. Above tumor cells are routinely cultured in DMEM culture medium containing 10% fetal bovine serum, 100 U·mL-1 penicillin and 100 mg·L−1 streptomycin, and in an incubator at 37° C. and with saturated humidity and 5% CO2 concentration.
(§2) Fill diluted cell suspension in the 96-well plate with 1000-10000 cells per well and incubate it in CO2 incubator overnight.
(§3) Replace with new medium containing various concentrations of compounds to be tested for the test group and replace with fresh medium with equal volume for the control group, each group is arranged with 5 parallel wells and incubated in an incubator at 37° C. and with 5% CO2 concentration.
(§4) Discard the supernatant after 72 hours, add 200 μL freshly prepared serum-free medium containing 0.2 mg/mL MTT into each well, continue to incubate at 37° C. for 1-4 hours, then stop incubation, carefully remove the culture supernatant in the wells and add 200 uL DMSO (dimethyl sulfoxide), oscillate with a miniature ultrasonic oscillator for 15-20 minutes to make the crystal fully dissolved and mixed. Determine OD values using a microplate reader at 570 nm with a reference wavelength of 450 nm.
(§5) Draw curves based on the growth inhibition rate for tumor cells of the same sample with different concentrations to get dose-response curve, so as to calculate IC50. Repeat each test for 3 times, measure IC50 (μM) or nanomolor concentration (nM) of compounds in different tumor cells.

| SMILES | IC50 [µM] |
| --- | --- |
| COc1ccc2c(c1)CCCN2c1cc(=O)oc2ccccc12 [COUM-36, 4-(6-methoxy-3,4-dihydroquinoline-1(2H)-yl) coumarin] | > 5 |
| COc1ccc2c(-c3ccc(-c4ccc5c(c4)OCO5)o3)cc(=O)oc2c1 [COUM-25, 4-(5-(3,4-(methylenedioxy)benzene)furan-2-yl)-7-methoxyl-coumarin] | > 5 |
| COc1ccc2c(-c3ccc(-c4cccc(Cl)c4)s3)cc(=O)oc2c1 [COUM-35, 4-(5-(3-chlorobenzene)thiophene-2-yl)-7-methoxyl-coumarin] | > 5 |
| CCOC(=O)c1cccc(-c2ccc(-c3cc(=O)oc4cc(OC)ccc34)o2)c1 [COUM-27, 4-(5-(3-ethoxycarbonylbenzene)furan-2-yl)-7-methoxyl-coumarin] | > 5 |
| COc1cc(-c2ccc(-c3cc(=O)oc4ccccc34)o2)cc(OC)c1OC [COUM-20, 4-(5-(3,4,5-trimethoxyphenyl)furan-2-yl)-coumarin] | > 5 |
| O=c1cc(-c2ccc(-c3ccccc3Cl)s2)c2ccccc2o1 [COUM-30, 4-(5-(2-chlorobenzene)thiophene-2-yl)-coumarin] | > 5 |
| COc1ccc(N(C)c2cc(=O)oc3cc(OC)ccc23)cc1 [COUM-40, 4-(N-methyl-N-(4-methoxybenzene)-amino)-7-methoxycoumarin] | 0.01 to 0.1 |
| COc1ccc2c(-c3ccc(-c4cc(OC)c(OC)c(OC)c4)o3)cc(=O)oc2c1 [COUM-23, 4-(5-(3,4,5-trimethoxybenzene)furan-2-yl)-7-methoxyl-coumarin] | > 5 |
| COc1ccc(N(C)c2cc(=O)oc3ccccc23)cc1OC(=O)C(CCSC)NC(=O)OC(C)(C)C (stereo not drawn) [COUM-86, 4-(N-methyl-N-(4-methoxy-3-(Boc-methionine)benzene)amino) Coumarin] | 0.1 to 5 |
| COc1ccccc1-c1ccc(-c2cc(=O)oc3ccccc23)o1 [COUM-18, 4-(5-(2-methoxyphenyl)furan-2-yl)-coumarin] | > 5 |

system: melanoma A375; assay: as above; format: cell-based, human; details: Homo sapiens, A-375, 72 hours, read-out: IC50 of compounds for tumor cells, Activity, A375
Text: as §1, §2, §3, §4, §5

| SMILES | IC50 [µM] |
| --- | --- |
| COc1ccc2c(c1)CCCN2c1cc(=O)oc2ccccc12 [COUM-36, 4-(6-methoxy-3,4-dihydroquinoline-1(2H)-yl) coumarin] | > 5 |
| COc1ccc2c(-c3ccc(-c4ccc5c(c4)OCO5)o3)cc(=O)oc2c1 [COUM-25, 4-(5-(3,4-(methylenedioxy)benzene)furan-2-yl)-7-methoxyl-coumarin] | > 5 |
| COc1ccc2c(-c3ccc(-c4cccc(Cl)c4)s3)cc(=O)oc2c1 [COUM-35, 4-(5-(3-chlorobenzene)thiophene-2-yl)-7-methoxyl-coumarin] | > 5 |
| CCOC(=O)c1cccc(-c2ccc(-c3cc(=O)oc4cc(OC)ccc34)o2)c1 [COUM-27, 4-(5-(3-ethoxycarbonylbenzene)furan-2-yl)-7-methoxyl-coumarin] | > 5 |
| COc1cc(-c2ccc(-c3cc(=O)oc4ccccc34)o2)cc(OC)c1OC [COUM-20, 4-(5-(3,4,5-trimethoxyphenyl)furan-2-yl)-coumarin] | > 5 |
| O=c1cc(-c2ccc(-c3ccccc3Cl)s2)c2ccccc2o1 [COUM-30, 4-(5-(2-chlorobenzene)thiophene-2-yl)-coumarin] | > 5 |
| COc1ccc(N(C)c2cc(=O)oc3cc(OC)ccc23)cc1 [COUM-40, 4-(N-methyl-N-(4-methoxybenzene)-amino)-7-methoxycoumarin] | 0.01 to 0.1 |
| COc1ccc2c(-c3ccc(-c4cc(OC)c(OC)c(OC)c4)o3)cc(=O)oc2c1 [COUM-23, 4-(5-(3,4,5-trimethoxybenzene)furan-2-yl)-7-methoxyl-coumarin] | > 5 |
| COc1ccc(N(C)c2cc(=O)oc3ccccc23)cc1OC(=O)C(CCSC)NC(=O)OC(C)(C)C (stereo not drawn) [COUM-86, 4-(N-methyl-N-(4-methoxy-3-(Boc-methionine)benzene)amino) Coumarin] | 0.1 to 5 |
| COc1ccccc1-c1ccc(-c2cc(=O)oc3ccccc23)o1 [COUM-18, 4-(5-(2-methoxyphenyl)furan-2-yl)-coumarin] | > 5 |

system: hepatocellular carcinoma cell HEPG2; assay: as above; format: cell-based, human; details: Homo sapiens, HepG2, 72 hours, read-out: IC50 of compounds for tumor cells, Activity, HEPG2
Text: as §1, §2, §3, §4, §5

| SMILES | IC50 [µM] |
| --- | --- |
| COc1ccc2c(c1)CCCN2c1cc(=O)oc2ccccc12 [COUM-36, 4-(6-methoxy-3,4-dihydroquinoline-1(2H)-yl) coumarin] | > 5 |
| COc1ccc2c(-c3ccc(-c4ccc5c(c4)OCO5)o3)cc(=O)oc2c1 [COUM-25, 4-(5-(3,4-(methylenedioxy)benzene)furan-2-yl)-7-methoxyl-coumarin] | > 5 |
| COc1ccc2c(-c3ccc(-c4cccc(Cl)c4)s3)cc(=O)oc2c1 [COUM-35, 4-(5-(3-chlorobenzene)thiophene-2-yl)-7-methoxyl-coumarin] | > 5 |
| CCOC(=O)c1cccc(-c2ccc(-c3cc(=O)oc4cc(OC)ccc34)o2)c1 [COUM-27, 4-(5-(3-ethoxycarbonylbenzene)furan-2-yl)-7-methoxyl-coumarin] | > 5 |
| COc1cc(-c2ccc(-c3cc(=O)oc4ccccc34)o2)cc(OC)c1OC [COUM-20, 4-(5-(3,4,5-trimethoxyphenyl)furan-2-yl)-coumarin] | > 5 |
| O=c1cc(-c2ccc(-c3ccccc3Cl)s2)c2ccccc2o1 [COUM-30, 4-(5-(2-chlorobenzene)thiophene-2-yl)-coumarin] | > 5 |
| COc1ccc(N(C)c2cc(=O)oc3cc(OC)ccc23)cc1 [COUM-40, 4-(N-methyl-N-(4-methoxybenzene)-amino)-7-methoxycoumarin] | 0.01 to 0.1 |
| COc1ccc2c(-c3ccc(-c4cc(OC)c(OC)c(OC)c4)o3)cc(=O)oc2c1 [COUM-23, 4-(5-(3,4,5-trimethoxybenzene)furan-2-yl)-7-methoxyl-coumarin] | > 5 |
| COc1ccc(N(C)c2cc(=O)oc3ccccc23)cc1OC(=O)C(CCSC)NC(=O)OC(C)(C)C (stereo not drawn) [COUM-86, 4-(N-methyl-N-(4-methoxy-3-(Boc-methionine)benzene)amino) Coumarin] | 0.1 to 5 |
| COc1ccccc1-c1ccc(-c2cc(=O)oc3ccccc23)o1 [COUM-18, 4-(5-(2-methoxyphenyl)furan-2-yl)-coumarin] | > 5 |

system: non-small cell lung cancer cell line NCI-H460; assay: as above; format: cell-based, human; details: Homo sapiens, NCI-H460, 72 hours, read-out: IC50 of compounds for tumor cells, Activity, H460
Text: as §1, §2, §3, §4, §5

| SMILES | IC50 [µM] |
| --- | --- |
| COc1ccc2c(c1)CCCN2c1cc(=O)oc2ccccc12 [COUM-36, 4-(6-methoxy-3,4-dihydroquinoline-1(2H)-yl) coumarin] | > 5 |
| COc1ccc2c(-c3ccc(-c4ccc5c(c4)OCO5)o3)cc(=O)oc2c1 [COUM-25, 4-(5-(3,4-(methylenedioxy)benzene)furan-2-yl)-7-methoxyl-coumarin] | > 5 |
| COc1ccc2c(-c3ccc(-c4cccc(Cl)c4)s3)cc(=O)oc2c1 [COUM-35, 4-(5-(3-chlorobenzene)thiophene-2-yl)-7-methoxyl-coumarin] | > 5 |
| CCOC(=O)c1cccc(-c2ccc(-c3cc(=O)oc4cc(OC)ccc34)o2)c1 [COUM-27, 4-(5-(3-ethoxycarbonylbenzene)furan-2-yl)-7-methoxyl-coumarin] | > 5 |
| COc1cc(-c2ccc(-c3cc(=O)oc4ccccc34)o2)cc(OC)c1OC [COUM-20, 4-(5-(3,4,5-trimethoxyphenyl)furan-2-yl)-coumarin] | > 5 |
| O=c1cc(-c2ccc(-c3ccccc3Cl)s2)c2ccccc2o1 [COUM-30, 4-(5-(2-chlorobenzene)thiophene-2-yl)-coumarin] | > 5 |
| COc1ccc(N(C)c2cc(=O)oc3cc(OC)ccc23)cc1 [COUM-40, 4-(N-methyl-N-(4-methoxybenzene)-amino)-7-methoxycoumarin] | 0.01 to 0.1 |
| COc1ccc2c(-c3ccc(-c4cc(OC)c(OC)c(OC)c4)o3)cc(=O)oc2c1 [COUM-23, 4-(5-(3,4,5-trimethoxybenzene)furan-2-yl)-7-methoxyl-coumarin] | > 5 |
| COc1ccc(N(C)c2cc(=O)oc3ccccc23)cc1OC(=O)C(CCSC)NC(=O)OC(C)(C)C (stereo not drawn) [COUM-86, 4-(N-methyl-N-(4-methoxy-3-(Boc-methionine)benzene)amino) Coumarin] | 0.1 to 5 |
| COc1ccccc1-c1ccc(-c2cc(=O)oc3ccccc23)o1 [COUM-18, 4-(5-(2-methoxyphenyl)furan-2-yl)-coumarin] | > 5 |

system: colon carcinoma cell HCT116; assay: as above; format: cell-based, human; details: Homo sapiens, HCT-116, 72 hours, read-out: IC50 of compounds for tumor cells, Activity, HCT116
Text: as §1, §2, §3, §4, §5

| SMILES | IC50 [µM] |
| --- | --- |
| COc1ccc2c(c1)CCCN2c1cc(=O)oc2ccccc12 [COUM-36, 4-(6-methoxy-3,4-dihydroquinoline-1(2H)-yl) coumarin] | > 5 |
| COc1ccc2c(-c3ccc(-c4ccc5c(c4)OCO5)o3)cc(=O)oc2c1 [COUM-25, 4-(5-(3,4-(methylenedioxy)benzene)furan-2-yl)-7-methoxyl-coumarin] | > 5 |
| COc1ccc2c(-c3ccc(-c4cccc(Cl)c4)s3)cc(=O)oc2c1 [COUM-35, 4-(5-(3-chlorobenzene)thiophene-2-yl)-7-methoxyl-coumarin] | > 5 |
| CCOC(=O)c1cccc(-c2ccc(-c3cc(=O)oc4cc(OC)ccc34)o2)c1 [COUM-27, 4-(5-(3-ethoxycarbonylbenzene)furan-2-yl)-7-methoxyl-coumarin] | > 5 |
| COc1cc(-c2ccc(-c3cc(=O)oc4ccccc34)o2)cc(OC)c1OC [COUM-20, 4-(5-(3,4,5-trimethoxyphenyl)furan-2-yl)-coumarin] | > 5 |
| O=c1cc(-c2ccc(-c3ccccc3Cl)s2)c2ccccc2o1 [COUM-30, 4-(5-(2-chlorobenzene)thiophene-2-yl)-coumarin] | > 5 |
| COc1ccc(N(C)c2cc(=O)oc3cc(OC)ccc23)cc1 [COUM-40, 4-(N-methyl-N-(4-methoxybenzene)-amino)-7-methoxycoumarin] | 0.01 to 0.1 |
| COc1ccc2c(-c3ccc(-c4cc(OC)c(OC)c(OC)c4)o3)cc(=O)oc2c1 [COUM-23, 4-(5-(3,4,5-trimethoxybenzene)furan-2-yl)-7-methoxyl-coumarin] | > 5 |
| COc1ccc(N(C)c2cc(=O)oc3ccccc23)cc1OC(=O)C(CCSC)NC(=O)OC(C)(C)C (stereo not drawn) [COUM-86, 4-(N-methyl-N-(4-methoxy-3-(Boc-methionine)benzene)amino) Coumarin] | 0.1 to 5 |
| COc1ccccc1-c1ccc(-c2cc(=O)oc3ccccc23)o1 [COUM-18, 4-(5-(2-methoxyphenyl)furan-2-yl)-coumarin] | > 5 |

system: breast cancer cell MCF-7; assay: as above; format: cell-based; details: Homo sapiens, MCF7, 72 hours, read-out: IC50 of compounds for tumor cells, Activity, MCF-7
Text: as §1, §2, §3, §4, §5

| SMILES | IC50 [µM] |
| --- | --- |
| COc1ccc2c(c1)CCCN2c1cc(=O)oc2ccccc12 [COUM-36, 4-(6-methoxy-3,4-dihydroquinoline-1(2H)-yl) coumarin] | > 5 |
| COc1ccc2c(-c3ccc(-c4ccc5c(c4)OCO5)o3)cc(=O)oc2c1 [COUM-25, 4-(5-(3,4-(methylenedioxy)benzene)furan-2-yl)-7-methoxyl-coumarin] | > 5 |
| COc1ccc2c(-c3ccc(-c4cccc(Cl)c4)s3)cc(=O)oc2c1 [COUM-35, 4-(5-(3-chlorobenzene)thiophene-2-yl)-7-methoxyl-coumarin] | > 5 |
| CCOC(=O)c1cccc(-c2ccc(-c3cc(=O)oc4cc(OC)ccc34)o2)c1 [COUM-27, 4-(5-(3-ethoxycarbonylbenzene)furan-2-yl)-7-methoxyl-coumarin] | > 5 |
| COc1cc(-c2ccc(-c3cc(=O)oc4ccccc34)o2)cc(OC)c1OC [COUM-20, 4-(5-(3,4,5-trimethoxyphenyl)furan-2-yl)-coumarin] | > 5 |
| O=c1cc(-c2ccc(-c3ccccc3Cl)s2)c2ccccc2o1 [COUM-30, 4-(5-(2-chlorobenzene)thiophene-2-yl)-coumarin] | > 5 |
| COc1ccc(N(C)c2cc(=O)oc3cc(OC)ccc23)cc1 [COUM-40, 4-(N-methyl-N-(4-methoxybenzene)-amino)-7-methoxycoumarin] | 0.01 to 0.1 |
| COc1ccc2c(-c3ccc(-c4cc(OC)c(OC)c(OC)c4)o3)cc(=O)oc2c1 [COUM-23, 4-(5-(3,4,5-trimethoxybenzene)furan-2-yl)-7-methoxyl-coumarin] | > 5 |
| COc1ccc(N(C)c2cc(=O)oc3ccccc23)cc1OC(=O)C(CCSC)NC(=O)OC(C)(C)C (stereo not drawn) [COUM-86, 4-(N-methyl-N-(4-methoxy-3-(Boc-methionine)benzene)amino) Coumarin] | 0.1 to 5 |
| COc1ccccc1-c1ccc(-c2cc(=O)oc3ccccc23)o1 [COUM-18, 4-(5-(2-methoxyphenyl)furan-2-yl)-coumarin] | > 5 |
